Values joined by “and” are separate entries in the source; they are usually repeats but may differ in a detail not shown here. Identical values can stand only once.
Experiments:
Citrus nematodes = experiment: Nematicidal effects of citral in soil, Citrus nematodes; type: in vivo, citrus nematode
Method: Methodology: Nematodes used for the analysis originated from commercial agricultural crop soils. Species of nematode included root-knot and citrus. Prior to commencement of each study the nematodes were counted and evaluated for viability. In each experiment soil samples were infected with only one species of nematode. Three measured quantities of soil (250 g) were placed into large PVC plastic containers.
Soil moisture was assessed by weighing a soil sample and then drying the sample in a drying oven. Soil moisture content was confirmed using a “Hydroscout” instrument. In all cases the moisture content measured by both methods was within the resolution of the instruments. By determining the water content of the soil it was possible to calculate the volume of terpene solution which would be diluted when mixed with the soil.
These dilutions were by volume not the more commonly used mass ratios. The reason for using volume dilutions was simply one of convenience enabling the use of a micropipette or cylinder to measure the terpene. The mass ratio of the ‘in soil’ and ‘in water’ solution could be simply calculated by multiplying the ppm of terpene by it's density (0.92 g/ml).
The terpene solution was added to each test tube containing a weighed sample of nematode infected soil. The terpene solution and soil were mixed by inverting the test tube several times. The test tubes containing the soil and terpene solution were left to stand in racks in the laboratory for 48 hours-72 hours depending on the survival of the untreated nematodes. In each experiment a control group was treated with distilled water. The % mortality (kill) rates in the treatment groups was compared with the control population.
The nematodes were extracted by “Sieving & mist extraction” (Ayoub, S. M. 1977) prior to being counted.
Criteria for Evaluation: Nematode counts were performed to determine the proportion of nematodes which survived and were killed in each treatment group.
The results are shown below on Table 17 to 19.

Saprophagous nematodes = experiment: Nematicidal activity of citral on Saprophagous nematodes (selectivity experiment); details: 250 ppm
Description: Living saprophagus nematodes move rapidly in water. The control used was the nematodes in water alone.
The figures given are for the percentage of nematodes found to be dead upon microscopic examination and are the average of 2 replicates.

root-knot nematodes = experiment: Effect of pH on the nematicidal activity of citral (fresh and one-day old solutions); type: in vivo, root-knot nematode
Method: Test solutions of these three concentrations were prepared at different pHs by adjusting the pH with HCl or NaOH to pH 4, 7 and 10.
One batch of test solutions was used immediately and another was left for 24 hours before use. The method of administration to the nematodes and counting the kill rate is the same as for previous protocols.
The results are shown below in Tables 11 and 12.

Root Knot nematodes = experiment: Nematicidal effects of citral in soil, Root Knot nematodes; type: in vivo, root-knot nematode
Method: Methodology: Nematodes used for the analysis originated from commercial agricultural crop soils. Species of nematode included root-knot and citrus. Prior to commencement of each study the nematodes were counted and evaluated for viability. In each experiment soil samples were infected with only one species of nematode. Three measured quantities of soil (250 g) were placed into large PVC plastic containers. Soil moisture was assessed by weighing a soil sample and then drying the sample in a drying oven. Soil moisture content was confirmed using a “Hydroscout” instrument. In all cases the moisture content measured by both methods was within the resolution of the instruments. By determining the water content of the soil it was possible to calculate the volume of terpene solution which would be diluted when mixed with the soil. […] These dilutions were by volume not the more commonly used mass ratios. The reason for using volume dilutions was simply one of convenience enabling the use of a micropipette or cylinder to measure the terpene. The mass ratio of the ‘in soil’ and ‘in water’ solution could be simply calculated by multiplying the ppm of terpene by it's density (0.92 g/ml). The terpene solution was added to each test tube containing a weighed sample of nematode infected soil. The terpene solution and soil were mixed by inverting the test tube several times. […] In each experiment a control group was treated with distilled water. The % mortality (kill) rates in the treatment groups was compared with the control population. The nematodes were extracted by “Sieving & mist extraction” (Ayoub, S. M. 1977) prior to being counted. Criteria for Evaluation: Nematode counts were performed to determine the proportion of nematodes which survived and were killed in each treatment group. […] The results are shown below on Table 17 to 19. The experiment was performed once again, this time with the following changes: • Dose range of 125 ppm-750 ppm was used. • Glass tubes containing 150 g of soil were used as opposed to PVC tubes in previous experiments.

[1] = Xanthan gum as interstitial hydrocolloid: dispersion of dried encapsulated L-carvone particles when re-hydrated; type: physicochemical; details: dispersion on re-hydration, SAF 1 g, L-carvone emulsion 1.1 g
Method: The following protocol was adopted to evaluate the effect of an interstitial hydrocolloid to increase dried hollow glucan particle encapsulated terpene formulations to disperse when hydrated. • SAF Mannan™ particles • 0.1% Tween 80 • L-carvone • Xanthan Gum—1% w/v in 0.1% Tween 80
The effect of increasing xanthan gum levels on dry hollow glucan particle encapsulated L-carvone dispersion in water was assessed by loading L-carvone into SAF Mannan by incubating 1.1 g of an L-carvone emulsion (L-carvone:water:surfactant ratio of 0.75:0.3:0.05) with 1 g SAF Mannan and 4.4 g 0.1% Tween 80 containing 0-1% xanthan gum as shown in Table 32.

Compound: CC(C)=CCCC(C)=CC=O [Citral, citral]
- Mean % killed (Citrus nematodes; first experiment (Table 16), 62.5 ppm, 8 replicates): −2.84%
- Mean % killed (Citrus nematodes; first experiment (Table 16), 125 ppm, 8 replicates): 46.29%
- Mean % killed (Citrus nematodes; first experiment (Table 16), 250 ppm, 8 replicates): 91.66%
- Mean % killed (Citrus nematodes; first experiment (Table 16), 500 ppm, 8 replicates): 95.53%
- Mean % killed (Citrus nematodes; repeated protocol (Table 19), 500 ppm, N 10): 99.9%
- % dead (Saprophagous nematodes; 24 h): 43% and 50%
- % dead (Saprophagous nematodes; 48 h): 50% and 52%
- % nematodes dead (root-knot nematodes; fresh citral, 62.5 ppm, pH 4, 24 h): 48%
- % nematodes dead (root-knot nematodes; fresh citral, 62.5 ppm, pH 4, 48 h): 50%
- % nematodes dead (root-knot nematodes; fresh citral, 62.5 ppm, pH 7, 24 h): 39%
- % nematodes dead (root-knot nematodes; fresh citral, 62.5 ppm, pH 7, 48 h): 44%
- % nematodes dead (root-knot nematodes; fresh citral, 62.5 ppm, pH 10, 24 h): 32%
- % nematodes dead (root-knot nematodes; fresh citral, 62.5 ppm, pH 10, 48 h): 45%
- % nematodes dead (root-knot nematodes; fresh citral, 125 ppm, pH 4, 24 h): 31%
- % nematodes dead (root-knot nematodes; fresh citral, 125 ppm, pH 4, 48 h): 50%
- % nematodes dead (root-knot nematodes; fresh citral, 125 ppm, pH 7, 24 h): 44%
- % nematodes dead (root-knot nematodes; fresh citral, 125 ppm, pH 7, 48 h): 47%
- % nematodes dead (root-knot nematodes; fresh citral, 125 ppm, pH 10, 24 h): 39%
- % nematodes dead (root-knot nematodes; fresh citral, 125 ppm, pH 10, 48 h): 39%
- % nematodes dead (root-knot nematodes; fresh citral, 250 ppm, pH 4, 24 h): 75%
- % nematodes dead (root-knot nematodes; fresh citral, 250 ppm, pH 4, 48 h): 73%
- % nematodes dead (root-knot nematodes; fresh citral, 250 ppm, pH 7, 24 h): 73%
- % nematodes dead (root-knot nematodes; fresh citral, 250 ppm, pH 7, 48 h): 72%
- % nematodes dead (root-knot nematodes; fresh citral, 250 ppm, pH 10, 24 h): 83%
- % nematodes dead (root-knot nematodes; fresh citral, 250 ppm, pH 10, 48 h): 87%
- % nematodes dead (root-knot nematodes; one-day old citral, 62.5 ppm, pH 4, 24 h): 40%
- % nematodes dead (root-knot nematodes; one-day old citral, 62.5 ppm, pH 4, 48 h): 27%
- % nematodes dead (root-knot nematodes; one-day old citral, 62.5 ppm, pH 7, 24 h): 30%
- % nematodes dead (root-knot nematodes; one-day old citral, 62.5 ppm, pH 7, 48 h): 27%
- % nematodes dead (root-knot nematodes; one-day old citral, 62.5 ppm, pH 10, 24 h): 16%
- % nematodes dead (root-knot nematodes; one-day old citral, 62.5 ppm, pH 10, 48 h): 21%
- % nematodes dead (root-knot nematodes; one-day old citral, 125 ppm, pH 4, 24 h): 27%
- % nematodes dead (root-knot nematodes; one-day old citral, 125 ppm, pH 4, 48 h): 31%
- % nematodes dead (root-knot nematodes; one-day old citral, 125 ppm, pH 7, 24 h): 25%
- % nematodes dead (root-knot nematodes; one-day old citral, 125 ppm, pH 7, 48 h): 33%
- % nematodes dead (root-knot nematodes; one-day old citral, 125 ppm, pH 10, 24 h): 25%
- % nematodes dead (root-knot nematodes; one-day old citral, 125 ppm, pH 10, 48 h): 32%
- % nematodes dead (root-knot nematodes; one-day old citral, 250 ppm, pH 4, 24 h): 90%
- % nematodes dead (root-knot nematodes; one-day old citral, 250 ppm, pH 4, 48 h): 90%
- % nematodes dead (root-knot nematodes; one-day old citral, 250 ppm, pH 7, 24 h): 40%
- % nematodes dead (root-knot nematodes; one-day old citral, 250 ppm, pH 7, 48 h): 33%
- % nematodes dead (root-knot nematodes; one-day old citral, 250 ppm, pH 10, 24 h): 47%
- % nematodes dead (root-knot nematodes; one-day old citral, 250 ppm, pH 10, 48 h): 52%
- Mean % killed (Root Knot nematodes; first experiment (Table 15), soil, 62.5 ppm, 8 replicates): 18.87%
- Mean % killed (Root Knot nematodes; first experiment (Table 15), soil, 125 ppm, 8 replicates): 4.34%
- Mean % killed (Root Knot nematodes; first experiment (Table 15), soil, 250 ppm, 8 replicates): 23.66%
- Mean % killed (Root Knot nematodes; first experiment (Table 15), soil, 500 ppm, 8 replicates): 67.10%
- Mean % killed (Root Knot nematodes; repeated protocol (Table 18), soil, 500 ppm, N 10): 99.6%
- Mean % killed (Root Knot nematodes; third experiment (Table 20), glass tubes, 150 g of soil, 125 ppm, N 8): 74.51%
- Mean % killed (Root Knot nematodes; third experiment (Table 20), glass tubes, 150 g of soil, 250 ppm, N 8): 97.37%
- Mean % killed (Root Knot nematodes; third experiment (Table 20), glass tubes, 150 g of soil, 500 ppm, N 8): 100%
- Mean % killed (Root Knot nematodes; third experiment (Table 20), glass tubes, 150 g of soil, 750 ppm, N 8): 99.42%

Compound: L-carvone
- Visual Observations ([1]; 0.1% Tween-80 0 g, 1% xanthan 4.4 g): Finer Uniform
- Visual Observations ([1]; 0.1% Tween-80 2.2 g, 1% xanthan 2.2 g): Finer Uniform
- Visual Observations ([1]; 0.1% Tween-80 3.3 g, 1% xanthan 1.1 g): Finer Uniform
- Visual Observations ([1]; 0.1% Tween-80 3.85 g, 1% xanthan 0.55 g): Uniform
- Visual Observations ([1]; 0.1% Tween-80 4.12 g, 1% xanthan 0.28 g): Uniform
- Visual Observations ([1]; 0.1% Tween-80 4.26 g, 1% xanthan 0.14 g): Uniform
- Visual Observations ([1]; 0.1% Tween-80 4.33 g, 1% xanthan 0.07 g): Uniform
- Visual Observations ([1]; 0.1% Tween-80 4.4 g, 1% xanthan 0 g): Large non-

Source: patent US10729130B2, “Nematicidal compositions and methods of using them” (Eden Research plc, priority 2004, dated 2020)
